Measurements as given in US9663789B2, “PME-1 as a biomarker to predict and diagnose endometrial and breast cancer and gene silencing of PME-1 to inhibit epithelial to mesenchymal transition” (MEDICAL DIAGNOSTIC LABORATORIES, LLC, priority 2013, dated 2017).

How the values were obtained:
Type in all cases: cell-based, human
[1] = system: RL95-2 cells; experiment: BrDU incorporation assay, RL95-2 cells; conditions: RL95-2, compared to scrambled shRNA control set to 100%
Procedure: To confirm our foci formation data that altering PME-1 levels in endometrial cancer cells affect their rate of cell proliferation, we conducted a BrDU incorporation assay. BrDU is incorporated into newly synthesized DNA and can be detected with antibodies; thus, increased BrDU incorporation correlates with an increased level of proliferation.
The BrDU Incorporation assay was completed with RL95-2 cell lines in media supplemented with 2.5 μg/ml puromycin. Cells were plated at 0.5×10^4 cells per well into a 96 well dish with 0% FBS and allowed to settle for 24 hours. The assay was completed as per kit instructions (Roche, Cell Proliferation ELISA, BrdU colorimetric cat. #11647229001). Briefly, 10 uM BrdU was added to the cells, 24 hours later cells were fixed and denatured with FixDenat from the kit and allowed to incubate with anti-BrdU antibody for up to two hours. Following the incubation and addition of the kit substrate, absorbances were read using FluoStar Galaxy.

[2] = system: WNT3A; experiment: qRT-PCR of WNT3A expression in RL95-2 cells; conditions: RL95-2, qRT-PCR normalized to 18S
Procedure: (§1) Using RL95-2 endometrial cancer cells, we overexpressed PME-1 (FIG. 21A) or depleted PME-1 with shRNA targeted to PME-1 (SEQ ID NO: 2) (FIG. 21B) and confirmed that PME-1 was appropriately expressed.
(§2) Total RNA was extracted with Qiagen RNAEasy kit from RL95-2 cells. cDNA was synthesized using 500 ng-1 μg of RNA and SuperScript VILO c-DNA mix (Life Technologies). Taqman probes and PCR-mix were purchased from Life Technologies. All samples were run in triplicates. Results are representative of three independent experiments in which genes of interest were normalized to the house-keeping gene, 18S or GAPDH, where fold-change was calculated using the ddCt method.

[3] = system: PME-1; experiment: Western blot of PME-1 protein in RL95-2 cells; conditions: GAPDH loading control
Procedure: We prepared RL95-2 cell lines expressing empty vector (control), over-expressing PME-1 (+PME-1), or expressing shRNA against PPME1, the gene that codes for PME-1 protein (−PME-1). Using these cells, we confirmed the appropriate level of PME-1 via real-time RT-PCR (data not shown) and Western blot analysis (FIG. 8). GAPDH was used as a loading control.
We also prepared two different shRNAs targeted against PME-1.
15 μg of protein was used for western analysis. PME-1 antibody (Santa Cruz) and COXIV (Cell Signaling Technologies) were used for detection of proteins and the blots were developed using chemiluminescence (Pierce ECL Western Blotting Substrate—Thermo Scientific) on the GE ImageQuant LAS 4000. For analysis of Akt, ERK, and β-catenin signaling in tissue culture, western analyses were completed as follows. RL95-2 cells stably infected with lentivirus expressing constructs were selected with puromycin (Invivogen). The cells were incubated with either 50 μM Akt inhibitor (LY 294002, Cell Signaling Technologies) or 40 μM ERK inhibitor (V0126, Cell Signaling Technologies) for 1-2 hours at 37° C. 1.5× Laemelli buffer (0.5 M Tris pH6.8, […], 10% sodium dodecyl sulfate, 100 mM EDTA) was used to prepare cell lysates. 20 μg of protein was used for western analysis. […]

[4] = system: RL95-2 cells; experiment: Colony forming / invasive growth assay in Matrigel
Procedure: To determine if PME-1 contributes to the more invasive and metastatic phenotypes, we performed a colony forming assay in matrigel.
The 3D On Top Matrigel Assay was completed in 24 well dishes. Briefly, the bottoms of 24 well dishes were coated with 50 μl BD Matrigel Basement Matrix Phenol Red Free (BD Biosciences cat. #356237) and allowed to solidify at 37° C. 10^5 cells were suspended in 250 μl chilled medium containing either 10 ng/ml of TGF-b or vehicle and allowed to settle at 37° C. for 30 minutes. Chilled medium containing 10% of Matrigel was added by pipetting gently down the sidewall of the well and incubated at 37° C. for ten days changing top medium every second day. Colony counts were performed on the tenth day; averages were taken from three fields of view using a 10× objective. Experiment was repeated three times.

[5] = system: PPME1 mRNA; experiment: qRT-PCR of PME-1 (PPME1) expression in RL95-2 cells; conditions: RL95-2 cells stably expressing shRNA, vs shSCR
Procedure: as §1, §2

[6] = system: RL95-2 cells; experiment: Foci formation assay, RL95-2 cells; conditions: RL95-2 cells expressing shRNA, compared to control cells
Procedure: A foci forming assay was used to monitor cell growth. Equal amounts of tumor cells were plated and they were allowed to grow for a determined period of time (see Materials and Methods section for details). The foci that were formed were then stained with the crystal violet dye. Cells were washed 3 times with PBS prior to visualization. Numbers of foci were counted and results were averaged among different experiments.
To determine if the loss of active PME-1 accounted for the observed decrease in foci formation, we first treated RL95-2 cells with siRNA against the 3′-UTR of PPME1 (SEQ ID NO: 5 and SEQ ID NO: 6) to decrease endogenous levels of PME-1. […] The S156A PME-1 mutant is not capable of de methylaing its target, PP2A.
1,000 cells were plated in a six well tissue culture dish in selection media (to include 5 μg/ml puromycin) (InvivoGen). Cells were allowed to adhere and grow in a 5% CO2, 37° C. incubator for 10 to 14 days. Media was replaced every fourth day. Cells were stained with 1% crystal violet (Sigma Aldrich) for five minutes and rinsed with PBS. Colonies were counted and data is presented as the percentage of change compared to the control. All Experiments were repeated at least three times.

[7] = system: β-catenin; experiment: Western analysis of β-catenin in RL95-2 cells
From the text: We performed Western blot analysis in RL95-2 cells that were expressing empty vector (Control), over-expressing PME-1 (+PME-1) or expressing shRNA against PME-1 (−PME-1) (SEQ ID NO: 2) to examine the protein stability of β-catenin (FIG. 19A). We observed a decrease in total β-catenin protein in cells that were over-expressing PME-1. This observation is correlated with the predicted ubiquitylation of β-catenin and its degradation.
In another series of study, we performed a similar assay in which cells were treated with 10 μM MG-132 prior to protein extraction. MG-132 is a proteasome inhibitor and therefore allows for the accumulation of phosphorylated β-catenin, which is normally quickly degraded, to be detected by western analysis.
15 μg of protein was used for western analysis. PME-1 antibody (Santa Cruz) and COXIV (Cell Signaling Technologies) were used for detection of proteins and the blots were developed using chemiluminescence (Pierce ECL Western Blotting Substrate—Thermo Scientific) on the GE ImageQuant LAS 4000. For analysis of Akt, ERK, and β-catenin signaling in tissue culture, western analyses were completed as follows. RL95-2 cells stably infected with lentivirus expressing constructs were selected with puromycin (Invivogen). […]

Substance: shRNA (SEQ ID NO: 2): lentiviral shRNA against PPME1, target sequence SEQ ID NO: 2 GCAGCGATTATTAGTAGAGTT, bp 289-309; hairpin SEQ ID NO: 8 (CCGGGCAGCGATTATTAGTAGAGTTCTCGAGAACTCTACTAATAATCGCTGCTTTTT; listed as Homo sapiens)
- decrease in BrDU incorporation [1]: 40%
- WNT3A expression [2]: significantly decreased
- PME-1 levels by Western blot analysis [3]: significantly decreased PME-1 levels
- colony number and size in Matrigel ([4]; RL95-2, −TGF-β, compared to control cells): fewer and smaller colonies
- decrease in colony formation ([4]; RL95-2 in Matrigel, 10 days, vs control cells): 50%
- PME-1 knocked down (qRT-PCR, normalized to 18S) [5]: > 50%
- decrease in foci [6]: 75%
- total β-catenin protein (Western) ([7]; RL95-2, absence of MG-132): stabilization of total β-catenin
- phosphorylated β-catenin (Western) ([7]; RL95-2, treated with 10 μM MG-132, compared to control cells): did not lead to an increase in phosphorylated β-catenin
